Results reported in US10494357B2, “Tocotrienol derivatives, pharmaceutical composition and method of use in 5-lipoxygenase related diseases” (UNIVERSITÉ D'ANGERS, priority 2015, dated 2019).
Read-outs that look alike come from different tables or passages of the source.

Key:
TNF-α = TNF-α release from LPS-stimulated monocytes (ELISA); format: cell-based; details: LPS 10 ng/ml
Method: (§1) First, different concentrations of δ-amplexichromanol (0.1; 1 and 10 μM) were added to the stimulated monocytes.
(§2) Secondly, monocytes were stimulated with lipopolysaccharide (LPS, 10 ng/ml for 4-18 h) for inducing the formation of pro-inflammatory cytokines.
(§3) Finally, the resulting levels of proinflammatory cytokines were measured by ELISA. Dexamethasone (1 μM) was used as control.

IL-8 = IL-8 release from LPS-stimulated monocytes (ELISA); format: cell-based; details: LPS 10 ng/ml
Method: as §1, §2, §3

IL-1β = IL-1β release from LPS-stimulated monocytes (ELISA); format: cell-based; details: LPS 10 ng/ml
Method: as §1, §2, §3

[1] = tested on: 5-LO product formation in neutrophils; test: 5-LO product formation in neutrophils; format: cell-based, human; details: for IC50: Homo sapiens, Neutrophil; for 5-LO product formation in neutrophils (A23187) residual activities [% vehicle control]: A23187 alone; for 5-LO product formation in neutrophils (AA + A23187) residual activities [% vehicle control]: A23187 plus 20 μM AA
Method: Freshly isolated neutrophils (1×10^7/ml) were pre-incubated with the test compounds for 15 min at 37° C. Then, 5-LO product formation was started by addition of 2.5 μM Ca^2+-ionophore A23187 alone or A23187 plus 20 μM arachidonic acid (AA). The reaction was stopped after 10 min at 37° C. with 1 ml of methanol. Major 5-LO metabolites (LTB4 and its all-trans isomers and 5-H(P)ETE) were extracted and analyzed by HPLC as described (Werz: Blood 2002, 99, 1044-1052). Cysteinyl-LTs C4, D4 and E4 and oxidation products of LTB4 were not determined.

human recombinant 5-LO = target: T1, human recombinant 5-LO (Homo sapiens, UniProt P09917); test: Human recombinant 5-LO activity; format: biochemical
T1 construct: made in house; inferred to be the same preparation
T1 sequence (P09917 1-674): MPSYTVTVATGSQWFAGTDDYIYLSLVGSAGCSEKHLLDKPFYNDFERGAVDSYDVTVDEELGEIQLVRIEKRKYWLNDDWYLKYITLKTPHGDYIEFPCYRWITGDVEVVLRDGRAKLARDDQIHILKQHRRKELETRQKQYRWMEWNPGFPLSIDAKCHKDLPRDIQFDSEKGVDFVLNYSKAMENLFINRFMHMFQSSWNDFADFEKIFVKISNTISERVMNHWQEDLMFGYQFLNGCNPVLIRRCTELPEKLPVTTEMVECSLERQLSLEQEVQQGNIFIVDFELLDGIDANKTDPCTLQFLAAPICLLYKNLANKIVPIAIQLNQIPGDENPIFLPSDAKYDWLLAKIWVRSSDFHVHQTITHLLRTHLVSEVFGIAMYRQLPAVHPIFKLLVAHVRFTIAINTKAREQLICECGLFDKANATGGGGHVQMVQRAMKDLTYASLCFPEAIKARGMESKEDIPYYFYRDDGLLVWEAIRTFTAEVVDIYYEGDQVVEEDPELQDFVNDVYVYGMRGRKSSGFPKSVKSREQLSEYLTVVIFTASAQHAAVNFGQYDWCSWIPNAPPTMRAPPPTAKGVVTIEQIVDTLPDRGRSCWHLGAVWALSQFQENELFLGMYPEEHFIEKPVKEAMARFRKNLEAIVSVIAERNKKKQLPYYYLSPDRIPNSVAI
Method: Methods for measuring the 5-LO activity are well-known from the skilled artisan. An example of such a method is disclosed in the Examples.
Human recombinant 5-LO was pre-incubated with the test compounds for 10 min at 4° C. and pre-warmed for 30 s at 37° C. 5-LO product formation was initiated by addition of 2 mM CaCl2 and 20 μM arachidonic acid. After 10 min at 37° C., the reaction was terminated by addition of 1 ml ice-cold methanol.

HepaRG® cells = test: Hepatotoxicity assay; format: cell-based; details: 48 h
Method: HepaRG® cells were seeded at a density of 2.6×10^4 cells/cm^2 in Williams' E medium supplemented with 2 mM glutamax, 100 U/mL penicillin, 100 μg/mL streptomycin, 10% Hyclone fetal calf serum, 5 μg/mL insulin, and […] hydrocortisone hemisuccinate. At confluence, after 2 weeks, HepaRG® cells were shifted to the same medium supplemented with 1.7% dimethyl sulfoxide for 2 additional weeks in order to obtain confluent differentiated cultures containing equal proportions of hepatocyte-like and progenitors/primitive biliary-like cell. These differentiated hepatic cell cultures were used for analytical assays.
Then, the cells were exposed to a tocotrienol derivative in Williams' E medium supplemented with 2% Hyclone fetal calf serum containing 0.2% dimethyl sulfoxide during 48 h.

LTC4 formation = test: Zymosan-induced peritonitis in mice, LTC4 level in peritoneal exudate; format: in vivo; details: 10 mg/kg i.p. 30 min before zymosan, measured 30 min after zymosan injection
Method: Zymosan was used to trigger peritonitis in mice pre-treated with a-amplexichromanol or Zileuton, each at a dose of 10 mg/kg. The resulting LTC4 levels in the peritoneal exudate were measured 30 min after zymosan injection.
α-amplexichromanol (10 mg/kg) or vehicle (0.5 ml of 0.9% saline solution containing 2% DMSO) were given i.p. 30 min before zymosan i.p. injection (0.5 ml of a 2 mg/ml suspension in 0.9% w/v saline). Mice were killed by inhalation of CO2 at the indicated time points followed by a peritoneal lavage with 3 ml of cold PBS pH 7.4. Exudates were collected. After centrifugation of the exudates (18,000× g, 5 min, 4° C.), the amounts of cysteinyl-LTs were analyzed in the supernatant by enzyme immunoassay (Enzo Life Sciences GmbH, Lörrach, Germany) according to manufacturer's instructions.

[2] = human recombinant 5-LO, read-out: IC50 (nM) 5-LO activity

| IC50 [1] [nM] | IC50 (human recombinant 5-LO; [2]) [nM] | Structure (SMILES) | Number of cells (HepaRG® cells; 0.1 μM) | Number of cells (HepaRG® cells; 1 μM) | Number of cells (HepaRG® cells; 10 μM) | also measured |
| --- | --- | --- | --- | --- | --- | --- |
|  |  | C[C@@H]1C[C@H]2[C@@H]3CCC4=CC(=O)C=C[C@]4(C)[C@@]3(F)[C@@H](O)C[C@]2(C)[C@@]1(O)C(=O)CO [dexamethasone] |  |  |  | TNF-α release (%) (TNF-α; 1 μM): 42.2 ± 0.8%; TNF-α release (%) (TNF-α; 10 μM): 13.3 ± 2.6%; IL-8 release (%) (IL-8; 1 μM): 83.5 ± 3.2%; IL-8 release (%) (IL-8; 10 μM): 30.6 ± 1.5%; IL-1β release (%) (IL-1β; 1 μM): 68.7 ± 2.4%; IL-1β release (%) (IL-1β; 10 μM): 49.9 ± 4.8% |
|  |  | CC(c1cc2ccccc2s1)N(O)C(N)=O (centres unmarked) [Zileuton, reference compound] | 4313 | 4244 | 4554 |  |
| 41 ± 1 |  | CC(=O)N(O)C/C=C/c1cccc(Oc2ccccc2)c1 [BWA4C, N-RE)-3-(3-phenoxyphenye-prop-2-enyllacetohydroxamic acid, reference compound] |  |  |  |  |
| 140 ± 21 | 120 ± 29 | C/C(=C/CC/C(C)=C/CC/C(C)=C/CCC1(C)CCc2cc(O)c(C)c(C)c2O1)CO (centres unmarked) [Compound 33, 2-((3E,7E,11Z)-13-hydroxy-4,8,12-trimethyltrideca-3,7,11-trien-1-yl)-2,7,8-trimethylchroman-6-ol] | 4363 | 4412 | 4610 |  |
| 220 ± 40 | 137 ± 29 | C/C(=C/CC/C(C)=C/CC/C(C)=C/CCC1(C)CCc2cc(O)cc(C)c2O1)CO (centres unmarked) [Compound 23, 2-((3E,7E,11Z)-13-hydroxy-4,8,12-trimethyltrideca-3,7,11-trien-1-yl)-2,8-dimethylchroman-6-ol] |  |  |  |  |
| 67 ± 54 | 110 | C/C(=C\CC/C(C)=C/CCC1(C)CCc2cc(O)c(C)c(C)c2O1)CCC=C(CO)CO (centres unmarked) [Compound 34, 2-((4E,8E)-11-(6-hydroxy-2,7,8-trimethylchroman-2-yl)-4,8-dimethylundeca-4,8-dien-1-ylidene)propane-1,3-diol] | 4212 | 4562 | 4677 |  |
| 419 ± 33 | 148 ± 35 | C/C(=C\CC/C(C)=C/CCC1(C)CCc2cc(O)cc(C)c2O1)CCC=C(CO)CO (centres unmarked) [Compound 26, 2-((4E,8E)-11-(6-hydroxy-2,8-dimethylchroman-2-yl)-4,8-dimethylundeca-4,8-dien-1-ylidene)propane-1,3-diol] |  |  |  | 5-LO product formation in neutrophils (A23187) residual activities [% vehicle control] ([1]; 0.1 μM): 17.4 ± 8.8 % vehicle control; 5-LO product formation in neutrophils (AA + A23187) residual activities [% vehicle control] ([1]; 0.1 μM): n.i.^a; 5-LO product formation in neutrophils (A23187) residual activities [% vehicle control] ([1]; 1 μM): 10.0 ± 2.8 % vehicle control; 5-LO product formation in neutrophils (AA + A23187) residual activities [% vehicle control] ([1]; 1 μM): 15.4 ± 4.4 % vehicle control; 5-LO product formation in neutrophils (A23187) residual activities [% vehicle control] ([1]; 10 μM): 0.0 ± 0.0 % vehicle control; 5-LO product formation in neutrophils (AA + A23187) residual activities [% vehicle control] ([1]; 10 μM): 0.6 ± 0.6 % vehicle control; TNF-α release (%) (TNF-α; 1 μM): n.i.^a; IL-8 release (%) (IL-8; 1 μM): n.i.^a; IL-1β release (%) (IL-1β; 1 μM): 86 ± 11% |
| 19 ± 4 | 106 ± 29 | C/C(=C\CC/C(C)=C/CCC1(C)CCc2c(C)c(O)c(C)c(C)c2O1)CCC=C(CO)CO (centres unmarked) [Compound 1, 2-((4E,8E)-11-(6-hydroxy-2,5,7,8-tetramethylchroman-2-yl)-4,8-dimethylundeca-4,8-dien-1-ylidene)propane-1,3-diol] | 4389 | 4705 | 4702 | LTC4 level in the peritoneal exudate (LTC4 formation): the same than the LTC4 level obtained by Zileuton |

| Structure (SMILES) | IC50 [1] [nM] | IC50 (human recombinant 5-LO; [2]) [nM] | Number of cells (HepaRG® cells; 0.1 μM) | Number of cells (HepaRG® cells; 1 μM) | Number of cells (HepaRG® cells; 10 μM) | also measured |
| --- | --- | --- | --- | --- | --- | --- |
| C/C(=C\CC/C(C)=C/CCC1(C)CCc2c(C)c(O)cc(C)c2O1)CCC=C(CO)CO (centres unmarked) [Compound 9, 2-((4E,8E)-11-(6-hydroxy-2,5,8-trimethylchroman-2-yl)-4,8-dimethylundeca-4,8-dien-1-ylidene)propane-1,3-diol] | 114 ± 35 |  | 4429 | 4436 | 4785 | IC50 (human recombinant 5-LO): 91 ± 15 nM |
